Test results published in ChEMBL document CHEMBL5244279, “Perspectives on SARS-CoV-2 Main Protease Inhibitors” (J Med Chem, 2021).
Peptide text beside a SMILES is read from it.

Columns and labels:
[1] = target: T1, Replicase polyprotein 1ab (Severe acute respiratory syndrome coronavirus 2, UniProt P0DTD1); assay: Inhibition of N-terminal MBP-tagged SARS CoV-2 Main protease by fluorescence based analysis
[2] = Binding affinity to SARS CoV Main protease incubated for 20 mins by reverse-phase HPLC analysis; design: species or system Severe acute respiratory syndrome-related coronavirus
[3] = Inhibition of SARS CoV Main protease using MCA-AVLQSGFR-Lys(DNP)-Lys-NH2 peptide as substrate by fluorescence based analysis; design: species or system Severe acute respiratory syndrome-related coronavirus
[4] = Cytotoxicity against mouse L929 cells assessed as reduction of cell viability; assay type: toxicity, cell-based
[5] = Cytotoxicity against cat CRFK cells assessed as reduction of cell viability; assay type: toxicity, cell-based, Felis catus
[6] = Cytotoxicity against human Huh-7 cells assessed as reduction of cell viability; assay type: toxicity, cell-based
[7] = Cytotoxicity against African green monkey Vero E6 cells assessed as reduction of cell viability by CellTiterGlo assay; assay type: toxicity, cell-based, Vero C1008; details: chlorocebus sabaeus
SARS-CoV [8] = assay: Antiviral activity against SARS CoV infected in human Calu-3 cells assessed as reduction in viral RNA replication by qPCR analysis; assay type: functional, organism-based; details: Severe acute respiratory syndrome-related coronavirus
[9] = Inhibition of SARS CoV Main protease using Dabcyl-KTSAVLQSGFRKM-E(Edans)-NH2 peptide as substrate by FRET assay; design: species or system Severe acute respiratory syndrome-related coronavirus
[10] = Inhibition of SARS CoV Main protease using 2-aminobenzoyl-SVTLQSG-Tyr(NO2)-R peptide as substrate by FRET assay; design: species or system Severe acute respiratory syndrome-related coronavirus
[11] = target: T1, Replicase polyprotein 1ab; assay: Inhibition of SARS CoV-2 Main protease using MCA-AVLQSGFR-Lys(DNP)-Lys-NH2 peptide as substrate by fluorescence based analysis
[12] = Half life in Beagle dog at 5 mg/kg, iv measured upto 24 hrs by LC-MS/MS analysis; assay type: ADME, organism-based, Canis lupus familiaris; details: in vivo
[13] = AUC in Beagle dog at 5 mg/kg, iv measured upto 24 hrs by LC-MS/MS analysis; assay type: ADME, organism-based, Canis lupus familiaris; design: time < 24 hrs, dose 5 mg/kg, route iv; details: in vivo
[14] = Clearance in Beagle dog at 5 mg/kg, iv measured upto 24 hrs by LC-MS/MS analysis; assay type: ADME, organism-based, Canis lupus familiaris; details: in vivo
[15] = Clearance in Sprague-Dawley rat at 10 mg/kg, iv measured upto 24 hrs by LC-MS/MS analysis; assay type: ADME, organism-based; details: in vivo
[16] = Half life in Sprague-Dawley rat at 10 mg/kg, iv measured upto 24 hrs by LC-MS/MS analysis; assay type: ADME, organism-based; details: in vivo
[17] = AUC in Sprague-Dawley rat at 10 mg/kg, iv measured upto 24 hrs by LC-MS/MS analysis; assay type: ADME, organism-based; design: time < 24 hrs, dose 10 mg/kg, route iv; details: in vivo
[18] = Cytotoxicity against African green monkey Vero E6 cells assessed as reduction of cell viability by CCK8 assay; assay type: toxicity, cell-based, Vero C1008; details: chlorocebus sabaeus
[19] = Binding affinity to SARS CoV Main protease incubated for 10 mins by FRET assay; design: species or system Severe acute respiratory syndrome-related coronavirus
SARS-CoV [20] = assay: microbe, parasite or virus in culture; details: Severe acute respiratory syndrome-related coronavirus, Vero C1008, 48 h
[21] = Inhibition of SARS CoV N-terminal his-tagged Main protease using Dabcyl-KTSAVLQSGFRKME-Edan peptide as substrate by fluorescence based analysis; design: species or system Severe acute respiratory syndrome-related coronavirus
[22] = Binding affinity to SARS CoV N-terminal his-tagged Main protease using Dabcyl-KTSAVLQSGFRKME-Edan peptide as substrate by fluorescence based analysis; design: species or system Severe acute respiratory syndrome-related coronavirus
[23] = Half life in mouse at 20 mg/kg, sc; assay type: ADME, organism-based; details: in vivo
[24] = Drug concentration in mouse lung at 20 mg/kg, sc; assay type: ADME, organism-based; details: in vivo
[25] = Mean residence time in mouse at 20 mg/kg, sc; assay type: ADME, organism-based; details: in vivo
[26] = Cytotoxicity against human HCT-8 cells assessed as reduction in cell viability by neutral red uptake assay; assay type: toxicity, cell-based
SARS-CoV-2 [27] = assay type: functional, organism-based, Vero E6; details: Severe acute respiratory syndrome coronavirus 2, strain 107, Vero C1008
[28] = Oral bioavailability in Sprague-Dawley rat; assay type: ADME, organism-based; details: in vivo
[29] = Cytotoxicity against dog MDCK cells assessed as reduction in cell viability by neutral red uptake assay; assay type: toxicity, cell-based, Canis lupus familiaris
[30] = Cytotoxicity against human A549 cells assessed as reduction in cell viability by neutral red uptake assay; assay type: toxicity, cell-based
[31] = Cytotoxicity against African green monkey Vero cells assessed as reduction in cell viability by neutral red uptake assay; assay type: toxicity, cell-based; details: chlorocebus sabaeus
[32] = Cytotoxicity against human Caco-2 cells assessed as reduction in cell viability by neutral red uptake assay; assay type: toxicity, cell-based
SARS-CoV-2 [33] = assay: Antiviral activity against SARS CoV-2 assessed as inhibition of viral growth; assay type: functional, organism-based; details: Severe acute respiratory syndrome coronavirus 2
[34] = Toxicity in rat assessed as median lethal dose; details: in vivo, read-out: MLD
SARS-CoV [35] = assay type: functional, organism-based, Vero E6; details: Severe acute respiratory syndrome-related coronavirus, 2019-nCoV/USA_WA1/2020, Vero C1008, 72 h
[36] = Cytotoxicity against African green monkey Vero E6 cells assessed as reduction of cell viability by XTT assay; assay type: toxicity, cell-based, Vero C1008; details: chlorocebus sabaeus
[37] = Inhibition of SARS CoV Main protease by FRET assay; design: species or system Severe acute respiratory syndrome-related coronavirus
SARS-CoV-2 [38] = assay type: functional, organism-based, Vero E6; details: Severe acute respiratory syndrome coronavirus 2, Vero C1008

Cc1cc(S(=O)(=O)c2c([N+](=O)[O-])cc(C(F)(F)F)cc2[N+](=O)[O-])c(Cl)cc1Cl
IC50 [1]: 300 nM

CCOC(=O)/C=C/[C@H](C[C@@H]1CCNC1=O)NC(=O)[C@H](CC(C)C)NC(=O)[C@@H](NC(=O)OCc1ccccc1)C(C)C
Ki [2]: 520 nM | IC50 [3]: 9100 nM

CC(C)C[C@H](NC(=O)OCc1ccccc1)C(=O)N[C@@H](C[C@@H]1CCNC1=O)C(O)S(=O)(=O)O (stereo partly specified)
CC50 [4]: > 200000 nM | CC50 [5]: > 200000 nM | CC50 [6]: > 200000 nM | CC50 [7]: > 200000 nM

O=C(/C=C/c1ccccc1)N[C@@H](CC1CCCCC1)C(=O)N[C@@H](C[C@@H]1CCNC1=O)C(=O)C(=O)NCc1ccccc1
EC50 (SARS-CoV [8]): 1400 nM | IC50 [9]: 710 nM

O=C(/C=C/c1ccccc1)N[C@@H](CC1CC1)C(=O)N[C@@H](C[C@@H]1CCNC1=O)C(=O)C(=O)NCc1ccccc1
EC50 (SARS-CoV [8]): 1900 nM | IC50 [9]: 240 nM

CC(C)C[C@H](NC(=O)/C=C/c1ccccc1)C(=O)N[C@@H](C[C@@H]1CCNC1=O)C(=O)C(=O)NCc1ccccc1
EC50 (SARS-CoV [8]): 7200 nM | IC50 [9]: 330 nM

O=C(Oc1cncc(Cl)c1)c1cccs1
IC50 [10]: 500 nM | IC50 [11]: 81 nM

O=C[C@H](C[C@@H]1CCNC1=O)NC(=O)[C@H](Cc1cccc(F)c1)NC(=O)c1cc2ccccc2[nH]1
CC50 [4]: > 100000 nM | half-life [12]: 5.5 h | AUC at 24 h [13]: 14900 ng·h/mL | clearance [14]: 5.8 mL/min | CC50 [5]: > 100000 nM | clearance [15]: 4.01 mL/min | half-life [16]: 7.6 h | CC50 [6]: > 100000 nM | CC50 [7]: > 100000 nM | AUC at 24 h [17]: 41500 ng·h/mL

O=C[C@H](C[C@@H]1CCNC1=O)NC(=O)[C@H](CC1CCCCC1)NC(=O)c1cc2ccccc2[nH]1
CC50 [4]: > 100000 nM | CC50 [5]: > 100000 nM | CC50 [6]: > 100000 nM | CC50 [7]: > 100000 nM

C[C@@H](OC(C)(C)C)[C@H](NC(=O)OCc1ccccc1)C(=O)N[C@@H](CC1CCCCC1)C(=O)N[C@H](C=O)C[C@@H]1CCNC1=O
CC50 [18]: > 200000 nM | Ki [19]: 53 nM | EC50 (SARS-CoV [20]): 600 nM

O=C(On1nnc2ccccc21)c1ccc2[nH]ccc2c1
IC50 [21]: 200 nM | Ki [22]: 7.5 nM

CC(C)(C)OC(=O)Nc1cccn([C@@H](CC2CC2)C(=O)N[C@@H](C[C@@H]2CCNC2=O)C(=O)C(=O)NCc2ccccc2)c1=O
half-life [23]: 1.8 h | Ct [24]: 13 ng/g | MRT [25]: 2.7 h | IC50 [9]: 900 nM

CC(C)C[C@H](NC(=O)OCC1CCC(F)(F)CC1)C(=O)N[C@@H](C[C@@H]1CCNC1=O)C(O)S(=O)(=O)O (stereo partly specified)
CC50 [4]: > 100000 nM | CC50 [5]: > 100000 nM | CC50 [26]: > 100000 nM | CC50 [6]: > 100000 nM

CC1(C)[C@@H]2[C@@H](C(=O)N[C@H](C=O)C[C@@H]3CCNC3=O)N(C(=O)COc3ccc(OC(F)(F)F)cc3)C[C@@H]21
EC50 (SARS-CoV-2 [27]): 860 nM | bioavailability [28]: 14.6%

CCC[C@H](NC(=O)[C@H](CC(C)C)NC(=O)OCc1ccccc1)C(=O)C(=O)NCc1ccccn1
CC50 [29]: > 100000 nM | CC50 [30]: > 100000 nM | CC50 [31]: > 100000 nM | CC50 [32]: > 100000 nM

O=c1c2ccccc2[se]n1Cc1ccco1
EC50 (SARS-CoV-2 [33]): 4670 nM | LD50 [34]: > 4600 mg/kg | IC50 [11]: 74 nM | Ki [11]: 31 nM

CCOC(=O)/C=C/[C@H](C[C@@H]1CCNC1=O)NC(=O)[C@H](CC(C)C)NC(=O)[C@@H](NC(=O)OCc1ccccc1)[C@@H](C)OC(C)(C)C
Ki [2]: 58 nM | EC50 (SARS-CoV [35]): 2880 nM | IC50 [11]: 151 nM

CC(=O)/C=C/[C@H](C[C@@H]1CCNC1=O)NC(=O)[C@H](CC(C)C)NC(=O)[C@H](CNC(=O)C(C)(C)C)NC(=O)OCc1ccccc1
Ki [2]: 38 nM

O=C[C@H](C[C@@H]1CCNC1=O)NC(=O)[C@@H]1[C@H]2CCC[C@H]2CN1C(=O)COc1ccc(Cl)cc1Cl
bioavailability [28]: 11.2%

CCOC(=O)/C=C/[C@H](Cc1ccccc1)NC(=O)[C@H](Cc1ccccc1)NC(=O)/C=C\c1ccc(N(C)C)cc1
Ki [2]: 660 nM | CC50 [36]: > 200000 nM | EC50 (SARS-CoV [35]): 18000 nM

CC(C)C[C@H](NC(=O)OC1CCC(F)(F)CC1)C(=O)N[C@@H](C[C@@H]1CCNC1=O)C(O)S(=O)(=O)O (stereo partly specified)
CC50 [4]: > 100000 nM | CC50 [5]: > 100000 nM | CC50 [26]: > 100000 nM | CC50 [6]: > 100000 nM | IC50 [37]: 2200 nM

CC(C)C[C@H](NC(=O)OC1CCC(F)(F)CC1)C(=O)N[C@H](C=O)C[C@@H]1CCNC1=O
CC50 [4]: > 100000 nM | CC50 [5]: > 100000 nM | CC50 [6]: > 100000 nM | IC50 (SARS-CoV-2 [38]): 2300 nM | IC50 [37]: 480 nM

CCCCC1CCC(OC(=O)N[C@@H](CC(C)C)C(=O)N[C@@H](C[C@@H]2CCNC2=O)C(O)S(=O)(=O)O)CC1 (stereo partly specified)
CC50 [4]: 59100 nM | CC50 [5]: 59100 nM | CC50 [6]: 59100 nM | IC50 [37]: 1000 nM

CC(C)C[C@H](NC(=O)/C=C\c1ccccc1)C(=O)N[C@H](C=O)C[C@@H]1CCCNC1=O
Ki [19]: 53 nM

CC(C)C[C@H](NC(=O)OC1CCCCC1)C(=O)N[C@@H](C[C@@H]1CCNC1=O)C(O)S(=O)(=O)O (stereo partly specified)
CC50 [4]: > 100000 nM | CC50 [5]: > 100000 nM | CC50 [6]: > 100000 nM | IC50 [37]: 3800 nM

CC(C)C[C@H](NC(=O)[C@@H](NC(=O)OCc1ccccc1)[C@@H](C)OC(C)(C)C)C(=O)N[C@H](/C=C/C(=O)C1CC1)C[C@@H]1CCNC1=O
Ki [2]: 99 nM

CC(=O)N[C@H](C(=O)N[C@H](C(=O)N[C@@H](CC(C)C)C(=O)N[C@@H](CCC(=O)N(C)C)C(=O)Cn1[nH]c(=O)c2c([N+](=O)[O-])cccc2c1=O)[C@@H](C)OCc1ccccc1)C(C)C
IC50 [1]: 600 nM

CSCC[C@@H](C=O)NC(=O)[C@H](CC(C)C)NC(=O)[C@H](CC(C)C)NC(C)=O (Ac-Leu-Leu-Met-aldehyde)
CC50 [29]: > 100000 nM | CC50 [30]: > 100000 nM | CC50 [31]: > 100000 nM | CC50 [32]: > 100000 nM

O=c1cc(-c2ccccc2)oc2cc(O)c(O)c(O)c12 [BAICALEIN]
CC50 [7]: > 200000 nM
